ChEMBL document CHEMBL1156519, “Roles for two aminopeptidases in vacuolar hemoglobin catabolism in Plasmodium falciparum” (J Biol Chem, 2007)
Activity calls are given as the source filed them. The calls are words filed in the database; no cut-off is given here. Peptide text beside a SMILES is read from it. * marks the point of attachment. CH2F = FC*

Columns and labels:
[1] = Inhibition of DPAP1 assessed as blocking of release of beta-naphthylamine from Ala-Pro-Ala-betaNA substrate at 1 uM
[2] = Inhibition of DPAP1 assessed as blocking of release of beta-naphthylamine from Ala-Pro-Ala-betaNA substrate at 1 uM in presence of recombinant Plasmodium falciparum aminopeptidase P
[3] = test system: Plasmodium falciparum; assay: Inhibition of aminopeptidase N in Plasmodium falciparum food vacuole extract
[4] = test system: Plasmodium falciparum; assay: Antimalarial activity as DNA content of ring stage Plasmodium falciparum 3D7 in medium + isoleucine by flow cytometry; format: functional, organism-based
[5] = test system: Plasmodium falciparum; assay: Antimalarial activity as inhibition of Plasmodium falciparum 3D7 replication in medium + isoleucine after 65 hrs; format: functional, organism-based; details: 3D7, 65 h
[6] = test system: Plasmodium falciparum; assay: Antimalarial activity as inhibition of Plasmodium falciparum 3D7 replication in medium with all amino acids after 65 hrs; format: functional, organism-based; details: 3D7, 65 h
[7] = test system: Plasmodium falciparum; assay: Antimalarial activity as DNA content of ring stage Plasmodium falciparum 3D7 in medium with all amino acids by flow cytometry; format: functional, organism-based

Row | Compound | Activity [1] | Activity [2] | Activity [3] | Activity [4] | EC50 [5] [µM] | EC50 [6] [µM] | Activity [7]
1 | N=C(N)NCCC[C@H](NC(=O)[C@@H]1CCCN1)C(=O)CF (H-Pro-Arg-CH2F) | Active | Active |  |  |  |  | 
2 | CC(C)C[C@H](NC(=O)[C@@H](O)[C@H](N)Cc1ccccc1)C(=O)O [UBENIMEX] | inactive | inactive | Active | Active | 0.9 | 1.8 | Active
3 | CC(C)CC(=O)N[C@H](C(=O)N[C@H](C(=O)N[C@@H](CC(C)C)[C@@H](O)CC(=O)N[C@@H](C)C(=O)N[C@@H](CC(C)C)[C@@H](O)CC(=O)O)C(C)C)C(C)C | inactive |  |  |  |  |  | 
4 | CC(C)C[C@H](NC(=O)[C@H]1O[C@@H]1C(=O)O)C(=O)NCCCCN=C(N)N | inactive | inactive |  |  |  |  | 
